Experimental findings from US11291666B2, “Uses” (INTRA-CELLULAR THERAPIES, INC., priority 2016, dated 2022) are described below.

One test addresses T1, bovine retina PDE6 (Bos taurus, UniProt P11541+P23439).
T1 construct: bovine retina PDE6; from tissue; host or cells: bovine retina
T1 sequence (P11541 2-856 limits assumed): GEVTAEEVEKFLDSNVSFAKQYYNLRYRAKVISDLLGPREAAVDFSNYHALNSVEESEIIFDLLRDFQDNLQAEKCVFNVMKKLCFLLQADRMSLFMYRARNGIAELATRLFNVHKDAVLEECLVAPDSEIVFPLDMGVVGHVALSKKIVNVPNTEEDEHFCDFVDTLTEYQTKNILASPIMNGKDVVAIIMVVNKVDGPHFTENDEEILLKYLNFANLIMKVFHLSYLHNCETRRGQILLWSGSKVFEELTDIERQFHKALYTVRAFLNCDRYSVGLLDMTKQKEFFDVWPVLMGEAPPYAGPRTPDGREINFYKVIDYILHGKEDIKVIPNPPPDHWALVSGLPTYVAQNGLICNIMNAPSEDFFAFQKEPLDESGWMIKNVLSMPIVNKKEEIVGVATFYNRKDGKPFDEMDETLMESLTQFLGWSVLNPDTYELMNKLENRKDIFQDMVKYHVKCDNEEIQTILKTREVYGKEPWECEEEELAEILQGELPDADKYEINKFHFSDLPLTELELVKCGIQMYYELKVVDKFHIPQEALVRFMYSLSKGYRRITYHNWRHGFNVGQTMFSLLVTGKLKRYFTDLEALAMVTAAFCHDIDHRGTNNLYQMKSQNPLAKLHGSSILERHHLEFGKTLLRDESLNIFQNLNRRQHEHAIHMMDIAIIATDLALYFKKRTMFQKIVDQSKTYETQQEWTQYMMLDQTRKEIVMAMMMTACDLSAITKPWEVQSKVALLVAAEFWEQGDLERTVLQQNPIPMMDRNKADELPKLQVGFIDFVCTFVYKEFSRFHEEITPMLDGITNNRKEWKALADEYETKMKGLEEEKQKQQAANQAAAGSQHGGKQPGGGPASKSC
T1 sequence (P23439 2-850 limits assumed): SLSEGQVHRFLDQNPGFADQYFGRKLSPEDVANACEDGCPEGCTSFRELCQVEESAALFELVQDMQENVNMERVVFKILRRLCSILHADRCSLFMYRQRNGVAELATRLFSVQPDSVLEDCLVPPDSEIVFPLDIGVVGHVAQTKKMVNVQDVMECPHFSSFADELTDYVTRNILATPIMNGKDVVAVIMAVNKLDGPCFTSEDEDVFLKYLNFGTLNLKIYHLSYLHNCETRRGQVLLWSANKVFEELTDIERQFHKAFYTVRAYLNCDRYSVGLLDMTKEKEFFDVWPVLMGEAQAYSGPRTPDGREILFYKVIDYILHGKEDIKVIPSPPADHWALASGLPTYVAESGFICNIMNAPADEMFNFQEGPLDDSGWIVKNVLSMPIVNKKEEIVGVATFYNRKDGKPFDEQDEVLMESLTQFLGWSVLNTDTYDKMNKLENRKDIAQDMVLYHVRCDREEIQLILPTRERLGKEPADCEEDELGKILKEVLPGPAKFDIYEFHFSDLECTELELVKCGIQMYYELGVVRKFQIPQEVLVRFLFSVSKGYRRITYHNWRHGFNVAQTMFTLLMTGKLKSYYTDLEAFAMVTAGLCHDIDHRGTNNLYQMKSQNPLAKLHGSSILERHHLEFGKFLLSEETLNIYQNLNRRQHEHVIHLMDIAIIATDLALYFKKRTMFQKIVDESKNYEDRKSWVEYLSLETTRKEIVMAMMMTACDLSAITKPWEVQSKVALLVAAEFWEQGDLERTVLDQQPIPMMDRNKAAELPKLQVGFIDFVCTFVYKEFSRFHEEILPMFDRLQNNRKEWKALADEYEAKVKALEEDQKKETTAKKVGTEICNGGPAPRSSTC
Description: PDE selectivity, bovine retina PDE6. It is filed as biochemical. As for the experimental part:
One unit of enzyme will hydrolyze […] of 3′,5′-cAMP to 5′-AMP per min at pH 7.5 at 30° C. […] 99 μl of diluted enzyme solution is added into each well in a flat bottom 96-well polystyrene plate to which 1 μι of test compound dissolved in 100% DMSO is added.

The next test concerns BV2 cells. The experiment in a line: LPS-induced TNFα release from BV2 cells (ELISA). It is filed as cell-based, mouse. As to conditions: 50 ng/ml LPS stimulation, FIG. 5. As for the experimental part: TNFα release: TNFα levels are measured in BV2 conditioned media and normalized to cell protein levels. Inhibition of LPS-induced TNFα release from BV2 cells is depicted in FIG. 5.
The test compound is added first, the LPS is added one hour later, and the cells and/or media are harvested at five hours from commencement of the experiment.
TNFαELISA: Thermo Fisher mouse TNFα colorimetric, sandwich ELISA kit. Interpolatee values from standard curve. Dose response is fit to a 4-parameter logistic curve.
(In general: ELISA stands for enzyme-linked immunosorbent assay.)

Each structure is given as a SMILES string.

In general, IC50 refers to the concentration needed to halve the response being measured. A low value points to higher potency. With `CN1C(=O)c2c(nn(Cc3ccc(-c4cccc(F)n4)cc3)c2Nc2ccccc2)N2C1=N[C@@H]1CCC[C@@H]12` [Compound 214], the IC50 on bovine retina PDE6 was 324 nM. Further, in the test on BV2 cells, the “LPS-induced TNFα release” value was “dose-dependent inhibition”.
